IC50 data for six compounds are collected here from US20240287094A1, “NITROGEN-CONTAINING HETEROCYCLIC COMPOUND, PREPARATION METHOD THEREFOR, AND APPLICATION THEREOF IN MEDICINES” (Jiangsu Hengrui Pharmaceuticals Co., Ltd., priority 2021, published 2024).

pIC50: −log10 of the molar value.

Experiment in all cases: Cell proliferation assay (CellTiter-Glo, intracellular ATP content)
Assay type in all cases: cell-based
For orientation: In ATP-based viability assays light output follows the ATP content of the culture.

One experiment deals with DLD1 cells. The note with it: DLD-1, 144 h; inhibition of proliferation, human colon cancer cells, 6 days incubation. From the text: (§1) The following method evaluates the inhibitory effect of the compounds of the present disclosure on the proliferation of DLD1, DLD1^BRCA2−/−, and MDA-MB-436 cells via IC50 by measuring the intracellular ATP content. The experimental method was briefly described as follows: • I. Experimental materials and instruments • 1. DLD1, human colon cancer cells (Cobioer, Nanjing, CBP60037) • 2. DLD1^BRCa2−/−, human BRCA2 gene knock-out colon cancer cells (Creative biogene, CSC-RT0015) • 3. MDA-MB-436, human breast cancer cells (ATCC, HTB-130) • 4. Fetal bovine serum (GIBCO, 10091-148) • 5. CellTite-Glo reagent (Promega, G^7573) • 6. 96-well cell culture plate (corning, 3903) • 7. Pancreatin (invitrogen, 25200-072) • 8. Microplate reader (BMG, PHERAsta) • 9. Cell counter (Countstar, Shanghai, IC1000) • II. Experimental procedures • DLD1 cells were cultured in an RPMI-1640 medium containing 10% FBS, and passaged 2-3 times a week in a passage ratio of 1:6 or 1:8. During passage, the cells were digested by pancreatin, transferred to a centrifuge tube, and centrifuged for 3 min at 1200 rpm. The supernatant was discarded, and a fresh medium was added to resuspend the cells. To a 96-well cell culture plate, 180 μL of the cell suspension was added at a density of 2.78×10^3 cells/mL. To peripheral wells of the 96-well plate, only 180 μL of complete medium was added.
(§2) The culture plate was incubated in an incubator for 24 h (37° C., 5% CO2).
(§3) The test samples were diluted to 2 mM in DMSO and serially 3-fold diluted to the 10th concentration. Blank and control wells were set. 5 μL of the serially diluted test compound solutions was added to 95 μL of fresh medium. 20 μL of the medium solution containing the compound described above was added to the plate. The plate was incubated in an incubator (37° C., 5% CO2) for 6 days. 90 μL of CellTiter-Glo reagent was added to each well of the 96-well cell culture plate. The plate was let stand for 5-10 min in the dark at room temperature. The chemiluminescence signals were read by a PHERAstar system, and the data were processed by GraphPad software.

In a further experiment the test system is DLD1^BRCA2−/− cells. The note with it: 144 h; inhibition of proliferation, human BRCA2 gene knock-out colon cancer cells, 6 days incubation.
Excerpt: as §1
DLD1^BRCA2−/− cells were cultured in an RPMI-1640 medium containing 10% FBS, and passaged 2-3 times a week in a passage ratio of 1:6 or 1:8. During passage, the cells were digested by pancreatin, transferred to a centrifuge tube, and centrifuged for 3 min at 1200 rpm. The supernatant was discarded, and a fresh medium was added to resuspend the cells. To a 96-well cell culture plate, 180 μL of the cell suspension was added at a density of 8.34×10^3 cells/mL. To peripheral wells of the 96-well plate, only 180 μL of complete medium was added.
as §2, §3

For another experiment, the system named is MDA-MB-436 cells. The conditions noted are these: MDA-MB-436, 144 h; inhibition of proliferation, human breast cancer cells, 6 days incubation.
Excerpt: as §1
MDA-MB-436 cells were cultured in a Leibovitz's L-15 medium containing 10% FBS, 10 μg/mL insulin, and 16 µg/mL glutathione, and passaged 2-3 times a week in a passage ratio of 1:3 or 1:5. During passage, the cells were digested by pancreatin, transferred to a centrifuge tube, and centrifuged for 3 min at 1200 rpm. The supernatant was discarded, and a fresh medium was added to resuspend the cells. To a 96-well cell culture plate, 180 μL of the cell suspension was added at a density of 8.34×10^3 cells/mL. To peripheral wells of the 96-well plate, only 180 μL of complete medium was added.
as §2, §3

For the compound `CCc1cc2ncc(CN3CCN4c5ccc(C(=O)NC)nc5COC[C@H]4C3)cc2[nH]c1=O` [Example 8, (R)-3-((7-Ethyl-6-oxo-5,6-dihydro-1,5-naphthyridin-3-yl)methyl)-N-methyl-1,2,3,4,4a,5-hexahydro-7H-pyrazino[2,1-c]pyrido[3,2-e][1,4]oxazepine-9-carboxamide], the pIC50 was < 6.00 in the experiment with DLD1 cells, 8.11 with DLD1^BRCA2−/− cells and 8.92 in the experiment with MDA-MB-436 cells.
With `CCc1cc2ncc(CN3CCN4c5ccc(C(=O)NC)nc5N(C)CC4C3)cc2[nH]c1=O` (racemic) [Example 7, (±)-3-((7-Ethyl-6-oxo-5,6-dihydro-1,5-naphthyridin-3-yl)methyl)-N,6-dimethyl-2,3,4,4a,5,6-hexahydro-1H-pyrazino[1,2-a]pyrido[2,3-e]pyrazine-8-carboxamide], the pIC50 in the experiment with DLD1 cells was < 6.00; in the experiment on MDA-MB-436 cells, 7.73.
`CCc1cc2ncc(CN3CCN4c5ccc(C(=O)NC)nc5OCC4C3)cc2[nH]c1=O` (racemic) [Example 1, (±)-3-((7-Ethyl-6-oxo-5,6-dihydro-1,5-naphthyridin-3-yl)methyl)-N-methyl-1,2,3,4,4a,5-hexahydropyrazino[1,2-d]pyrido[2,3-b][1,4]oxazine-8-carboxamide]: the pIC50 with DLD1 cells was < 6.00; in the experiment on DLD1^BRCA2−/− cells, 8.10; with MDA-MB-436 cells, 8.24.
For `CCc1cc2ncc(CN3CCN4c5ccc(C(=O)NC)nc5OC[C@H]4C3)cc2[nH]c1=O` [Example 2, (R)-3-((7-Ethyl-6-oxo-5,6-dihydro-1,5-naphthyridin-3-yl)methyl)-N-methyl-1,2,3,4,4a,5-hexahydropyrazino[1,2-d]pyrido[2,3-b][1,4]oxazine-8-carboxamide] the same measures were < 6.60, 8.60 and 9.00.
For the compound `CCc1cc2ncc(CN3CCN4c5ccc(C(=O)NC)nc5NCC4C3)cc2[nH]c1=O` (racemic) [Example 6, (±)-3-((7-Ethyl-6-oxo-5,6-dihydro-1,5-naphthyridin-3-yl)methyl)-N-methyl-2,3,4,4a,5,6-hexahydro-1H-pyrazino[1,2-a]pyrido[2,3-e]pyrazine-8-carboxamide], the negative-log IC50 (pIC50) is < 6.00 in the experiment with DLD1 cells and 7.38 with MDA-MB-436 cells.
Regarding `CCc1cc2ncc(CN3CCN4c5ccc(C(=O)NC)nc5COCC4C3)cc2[nH]c1=O` (racemic) [Example 3, (±)-3-((7-Ethyl-6-oxo-5,6-dihydro-1,5-naphthyridin-3-yl)methyl)-N-methyl-1,2,3,4,4a,5-hexahydro-7H-pyrazino[2,1-c]pyrido[3,2-e][1,4]oxazepine-9-carboxamide], the negative logarithm of the IC50 (pIC50) is < 6.60 in the experiment with DLD1 cells, 8.24 in the experiment on DLD1^BRCA2−/− cells and 8.96 with MDA-MB-436 cells.

The pIC50 is the IC50 on a negative log10 scale, so that one unit is a factor of ten. A high value points to a low IC50.
